Experimental data taken from patent US9302999B2, “Substituted triazoles as herbicides” (E. I. DU PONT DE NEMOURS AND COMPANY, priority 2012, dated 2016).

Legend:
Format in all cases: in vivo
[1] = system: cocklebur (common cocklebur, Xanthium strumarium); test: Test E pre-/postemergence: cocklebur; conditions: Preemergence, scale 0 to 100
Outline: (§1)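 Preemergence: seeds sown in silt loam soil and treated with test chemicals in non-phytotoxic solvent with surfactant. Postemergence: plants at 2 to 18 cm (1- to 4-leaf stage) in peat/vermiculite medium were sprayed with the same formulations. After 14 to 21 days in greenhouse, injury was rated visually against controls, 0 (no effect) to 100 (complete control).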

[2] = system: corn (Zea mays); test: Test E pre-/postemergence: corn; conditions: scale 0 to 100
Outline: as §1

[3] = system: morningglory (Ipomoea coccinea); test: Test E pre-/postemergence: morningglory; conditions: Preemergence, scale 0 to 100
Outline: as §1

[4] = system: dayflower, (VA) (Virginia dayflower, Commelina virginica); test: Test E pre-/postemergence: dayflower, (VA); conditions: scale 0 to 100
Outline: as §1

[5] = system: nutsedge, yellow (yellow nutsedge, Cyperus esculentus); test: Test E pre-/postemergence: nutsedge, yellow; conditions: Preemergence, scale 0 to 100
Outline: as §1

[6] = system: nightshade (eastern black nightshade, Solanum ptycanthum); test: Test E pre-/postemergence: nightshade; conditions: Preemergence, scale 0 to 100
Outline: as §1

[7] = system: kochia (Kochia scoparia); test: Test E pre-/postemergence: kochia; conditions: Preemergence, scale 0 to 100
Outline: as §1

[8] = system: poinsettia, wild (wild poinsettia, Euphorbia heterophylla); test: Test E pre-/postemergence: poinsettia, wild; conditions: scale 0 to 100
Outline: as §1

[9] = system: barnyardgrass (Echinochloa crus-galli); test: Test E pre-/postemergence: barnyardgrass; conditions: scale 0 to 100
Outline: as §1

[10] = system: smartweed (ladysthumb smartweed, Polygonum persicaria); test: Test E pre-/postemergence: smartweed; conditions: Postemergence, scale 0 to 100
Outline: as §1

[11] = system: lambsquarters (Chenopodium album); test: Test E pre-/postemergence: lambsquarters; conditions: Preemergence, scale 0 to 100
Outline: as §1

Cc1nn(-c2ccc(C(F)(F)F)cc2)nc1Oc1ccnc(C(F)(F)F)c1 [Compound 120]
Plant response rating: Cocklebur ([1]; 16 g ai/ha): 0 | Plant response rating: Cocklebur ([1]; 31 g ai/ha): 0 | Plant response rating: Cocklebur ([1]; 62 g ai/ha): 90 | Plant response rating: Cocklebur ([1]; 125 g ai/ha): 90 | Plant response rating: Corn ([2]; Postemergence, 8 g ai/ha): 10 | Plant response rating: Corn ([2]; Postemergence, 16 g ai/ha): 10 | Plant response rating: Corn ([2]; Postemergence, 31 g ai/ha): 10 | Plant response rating: Corn ([2]; Postemergence, 62 g ai/ha): 20 | Plant response rating: Corn ([2]; Postemergence, 125 g ai/ha): 20 | Plant response rating: Corn ([2]; Preemergence, 16 g ai/ha): 0 | Plant response rating: Corn ([2]; Preemergence, 62 g ai/ha): 5 | Plant response rating: Corn ([2]; Preemergence, 125 g ai/ha): 10 | Plant response rating: Corn ([2]; Preemergence, 250 g ai/ha): 10 | Plant response rating: Morningglory ([3]; 16 g ai/ha): 0 | Plant response rating: Morningglory ([3]; 31 g ai/ha): 30 | Plant response rating: Morningglory ([3]; 62 g ai/ha): 35 | Plant response rating: Morningglory ([3]; 125 g ai/ha): 60 | Plant response rating: Morningglory ([3]; 250 g ai/ha): 60 | Plant response rating: Dayflower, VA ([4]; Postemergence, 8 g ai/ha): 10 | Plant response rating: Dayflower, VA ([4]; Postemergence, 16 g ai/ha): 10 | Plant response rating: Dayflower, VA ([4]; Postemergence, 31 g ai/ha): 10 | Plant response rating: Dayflower, VA ([4]; Postemergence, 62 g ai/ha): 10 | Plant response rating: Dayflower, VA ([4]; Postemergence, 125 g ai/ha): 15 | Plant response rating: Dayflower, VA ([4]; Preemergence, 16 g ai/ha): 0 | Plant response rating: Dayflower, VA ([4]; Preemergence, 31 g ai/ha): 0 | Plant response rating: Dayflower, VA ([4]; Preemergence, 62 g ai/ha): 50 | Plant response rating: Dayflower, VA ([4]; Preemergence, 125 g ai/ha): 50 | Plant response rating: Dayflower, VA ([4]; Preemergence, 250 g ai/ha): 50 | Plant response rating: Nutsedge, Yellow ([5]; 16 g ai/ha): 0 | Plant response rating: Nutsedge, Yellow ([5]; 31 g ai/ha): 0 | Plant response rating: Nutsedge, Yellow ([5]; 62 g ai/ha): 0 | Plant response rating: Nutsedge, Yellow ([5]; 125 g ai/ha): 15 | Plant response rating: Nutsedge, Yellow ([5]; 250 g ai/ha): 25 | Plant response rating: Nightshade ([6]; 16 g ai/ha): 0 | Plant response rating: Nightshade ([6]; 31 g ai/ha): 0 | Plant response rating: Nightshade ([6]; 62 g ai/ha): 80 | Plant response rating: Nightshade ([6]; 125 g ai/ha): 98 | Plant response rating: Nightshade ([6]; 250 g ai/ha): 100 | Plant response rating: Kochia ([7]; 16 g ai/ha): 0 | Plant response rating: Kochia ([7]; 31 g ai/ha): 20 | Plant response rating: Kochia ([7]; 62 g ai/ha): 50 | Plant response rating: Kochia ([7]; 125 g ai/ha): 90 | Plant response rating: Kochia ([7]; 250 g ai/ha): 100 | Plant response rating: Poinsettia, Wild ([8]; Postemergence, 8 g ai/ha): 25 | Plant response rating: Poinsettia, Wild ([8]; Postemergence, 16 g ai/ha): 35 | Plant response rating: Poinsettia, Wild ([8]; Postemergence, 31 g ai/ha): 13 | Plant response rating: Poinsettia, Wild ([8]; Postemergence, 62 g ai/ha): 60 | Plant response rating: Poinsettia, Wild ([8]; Postemergence, 125 g ai/ha): 90 | Plant response rating: Poinsettia, Wild ([8]; Preemergence, 16 g ai/ha): 0 | Plant response rating: Poinsettia, Wild ([8]; Preemergence, 31 g ai/ha): 0 | Plant response rating: Poinsettia, Wild ([8]; Preemergence, 62 g ai/ha): 0 | Plant response rating: Poinsettia, Wild ([8]; Preemergence, 125 g ai/ha): 35 | Plant response rating: Poinsettia, Wild ([8]; Preemergence, 250 g ai/ha): 50 | Plant response rating: Barnyardgrass ([9]; Postemergence, 8 g ai/ha): 10 | Plant response rating: Barnyardgrass ([9]; Postemergence, 16 g ai/ha): 10 | Plant response rating: Barnyardgrass ([9]; Postemergence, 31 g ai/ha): 20 | Plant response rating: Barnyardgrass ([9]; Postemergence, 62 g ai/ha): 25 | Plant response rating: Barnyardgrass ([9]; Postemergence, 125 g ai/ha): 30 | Plant response rating: Barnyardgrass ([9]; Preemergence, 16 g ai/ha): 0 | Plant response rating: Barnyardgrass ([9]; Preemergence, 31 g ai/ha): 0 | Plant response rating: Barnyardgrass ([9]; Preemergence, 62 g ai/ha): 5 | Plant response rating: Barnyardgrass ([9]; Preemergence, 125 g ai/ha): 25 | Plant response rating: Barnyardgrass ([9]; Preemergence, 250 g ai/ha): 100 | Plant response rating: Smartweed ([10]; 8 g ai/ha): 10 | Plant response rating: Smartweed ([10]; 16 g ai/ha): 10 | Plant response rating: Smartweed ([10]; 125 g ai/ha): 40 | Plant response rating: Lambsquarters ([11]; 16 g ai/ha): 0 | Plant response rating: Lambsquarters ([11]; 31 g ai/ha): 50 | Plant response rating: Lambsquarters ([11]; 62 g ai/ha): 90 | Plant response rating: Lambsquarters ([11]; 125 g ai/ha): 98 | Plant response rating: Lambsquarters ([11]; 250 g ai/ha): 98
